Measurements reported in PubChem BioAssay AID2060905 (Molecular Pharmacology Branch, DTP, NCI, 2025).
Where “and” joins values, the source holds several entries; their conditions need not be identical. Equal entries are not always repeated.

Tested on: 282377-053-R-J1-PDC complex spheroid viability
Test: Anticancer human tumor 282377-053-R-J1-PDC patient-derived colon adenocarcinoma cell line growth inhibition [RAS]
Details: for viability, T/C: stronger effect = lower value
Source text: RAS pathway inhibitors in Combinations in Complex Spheroids
A high-throughput screen of multi-cell type tumor spheroids was designed to identify active combinations of RAS pathway inhibitors and targeted small molecules. Complex spheroids include a stromal component modeled by human endothelial cells (HUVEC) and fibroblasts modeled by human mesenchymal stem cells (MSCs). The concentration ranges selected for each drug and investigational agent were based upon clinically achievable concentrations if the clinical Cmax of the agent was known.
Compounds. The drugs and investigational agents: abemaciclib (NSC768073), cobimetinib (NSC768068), divarasib (GDC6063, NSC841802), docetaxel (NSC628503), GDC-1971 (RLY-1971, NSC841576), gemcitabine (NSC613327), inavolisib (NSC800729), ipatasertib (NSC767898), KB-0742 (NSC834161), MRTX-1133 (NSC836407), osimertinib (NSC779217), RMC-4630 (NSC839698), RMC-6236 (NSC851965), RMC-6291 (NSC852671), Ro-3306 (NSC812927), sapanisertib (NSC764658), SN-38 (NSC673596), staurosporine (NSC755774), SY5609 (NSC837396), and tovorafenib (DAY101, NSC766906), were obtained from the National Cancer Institute (NCI) Developmental Therapeutics Program Chemical Repository. The FDA-approved anticancer drug set is available from the NCI Developmental Therapeutics Program. […] The stock solutions were prepared in dimethyl sulfoxide (DMSO, Sigma-Aldrich, St. Louis, MO, cat. D2650) at 800-fold the tested concentration and stored at -70 degrees C prior to their use. All drugs and investigational agents were tested over a range starting from a high concentration at or near the clinical Cmax and decreasing in half-log increments. If the clinical Cmax for an agent had not been determined, the highest concentration tested was 10 microM.
Cell Culture. All cells were maintained in an incubator at 37 degrees C and 5% CO2 with 95% humidity. The PDC lines were cultured according to standard operating procedures established by the NCI PDMR. All PDCs were thawed and cultured in Matrigel-coated flasks prepared with a working solution of 1X Ham's F-12 nutrient mix, without supplementation (Invitrogen, Waltham, MA, cat. 11765054), 100 U/mL penicillin-streptomycin (Invitrogen, cat. 15140122), and 2.5% Matrigel (Corning Inc., Corning, NY, cat. 354248) for the first three passages. The 362531-283-R-J2-PDC and 782815-120-R-J1-PDC lines were cultured in 6C/Colon 1B media, which includes advanced DMEM/F-12 (Thermo Fisher Scientific, cat. 12634028), 10 mM HEPES (Thermo Fisher Scientific, cat. 15630080), 1X GlutaMAX supplement (Thermo Fisher Scientific, cat. 35050061), 0.1 mg/mL primocin (InvivoGen, San Diego, CA, cat. ant-pm-2), 10% defined fetal bovine serum, heat inactivated (HyClone Laboratories Inc., Logan, UT, cat. SH30070.03HI), 50% L-WRN conditioned media (ATCC, cat. CRL-3276), 1.25 mM N-Acetyl-L-cysteine (Sigma-Aldrich, cat. A9165), 10 mM nicotinamide (Sigma-Aldrich, cat. N0636), 1X B-27 supplement (Thermo Fisher Scientific, cat. 17504044), 1X N-2 supplement (Thermo Fisher Scientific, cat. 17502048), 50 ng/mL human EGF (Thermo Fisher Scientific, cat. PHG0311), and 10 microM Y-27632 dihydrochloride (Tocris Bioscience, cat. 1254). The K12877-001-R-J1-PDC line was cultured in 6I media, which includes all 6C/Colon 1B media plus 10 ng/mL human FGF-10 (PeproTech, cat. 100-26), 1 ng/mL human FGF-2 (PeproTech, cat. 100-18B), 1 µM prostaglandin E2 (Tocris Bioscience, cat. 2296), […] hydrocortisone (Sigma-Aldrich, cat. H4001), and […] bovine insulin (Sigma-Aldrich, cat. I6634). The K86415-001-R-J1-PDC line was cultured in 6D media, which includes all 6C/Colon 1B media components minus the L-WRN conditioned media. The 485176-168-R4-J1-PDC was cultured in PANC media, which includes all 6C/Colon 1B media plus 100 ng/mL human FGF-10 (PeproTech, cat. 100-26), 500 nM SB-431542 (Selleckchem, cat. S1067), and 10 nM gastrin (Tocris Bioscience, cat. 3006). […]

[1] = compound alone, run of 06/10/2024
[2] = compound alone, run of 05/20/2024
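Further: spheroids exposed to agents for seven days before readout.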
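Wherever viability, T/C is given: luminescence viability as percent of DMSO vehicle control wells.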

Row | Structure (SMILES) | IC50 (curve of compound) | viability, T/C (compound 0.1 µM) | viability, T/C (compound 0.316 µM) | viability, T/C (compound 3.16 µM) | viability, T/C (compound 10 µM) | viability, T/C (compound 0.0316 µM) | viability, T/C (compound 1 µM) | also measured
1 | C#Cc1c(F)ccc2cc(O)cc(-c3ncc4c(N5CC6CCC(C5)N6)nc(OCC56CCCN5CC(F)C6)nc4c3F)c12 (stereo not given) | – | 104% [middle of 8 runs] | 102% [middle of 8 runs] | 111% [middle of 8 runs] | 104% [middle of 8 runs] | – | – | IC50 [1]: > 10 µM
2 | C=CC(=O)Nc1cc(Nc2nccc(-c3cn(C)c4ccccc34)n2)c(OC)cc1N(C)CCN(C)C | > 1 µM | – | – | – | – | 91.6% [middle of 4 runs] | 99.8% [middle of 4 runs] | viability, T/C (compound 0.01 µM): 98.4% [middle of 4 runs]
3 | CC(=O)OC12COC1CC(O)C1(C)C(=O)C(O)C3=C(C)C(OC(=O)C(O)C(NC(=O)OC(C)(C)C)c4ccccc4)CC(O)(C(OC(=O)c4ccccc4)C21)C3(C)C (stereo not given) | < 0.0316 µM | 33.6% [middle of 4 runs] | 37.9% [middle of 4 runs] | – | – | – | – | –
4 | CC(C)n1nc(-c2ccc3oc(N)nc3c2)c2c(N)ncnc21 | > 0.1 µM | 51.8% [middle of 4 runs] | – | – | – | 74.9% [middle of 4 runs] | – | viability, T/C (compound 0.000316 µM): 91.6% [middle of 4 runs]; viability, T/C (compound 0.001 µM): 112% and 102% (2×) and 89.9%; viability, T/C (compound 0.00316 µM): 90.7% [middle of 4 runs]; viability, T/C (compound 0.01 µM): 87.2% [middle of 4 runs]
5 | CC1(C)CCC(Nc2ncc(C(F)(F)F)c(-c3c[nH]c4c(P(C)(C)=O)c(C#N)ccc34)n2)CN1 (stereo not given) | > 0.3 µM | – | – | – | – | – | – | viability, T/C (compound 0.003 µM): 102% [middle of 4 runs]; viability, T/C (compound 0.0949 µM): 74.2% [middle of 4 runs]; viability, T/C (compound 0.3 µM): 75.7% [middle of 4 runs]
6 | CCC(CC)c1cc(NC2CCC(N)C2)n2nccc2n1 (stereo not given) | 1.96 µM [middle of 4 runs] | – | – | 10.4% [middle of 4 runs] | 3% [middle of 4 runs] | – | 112% [middle of 4 runs] | –
7 | CCc1c2c(nc3ccc(O)cc13)-c1cc3c(c(=O)n1C2)COC(=O)[C@]3(O)CC | > 0.3 µM | – | – | – | – | – | – | viability, T/C (compound 0.000949 µM): 106% [middle of 4 runs]; viability, T/C (compound 0.003 µM): 107% (2×) and 119% and 122%
8 | CCn1c(-c2cc(N3CCN(C)CC3)cnc2C(C)OC)c2c3cc(ccc31)-c1csc(n1)CC(NC(=O)C1CC1C)C(=O)N1CCCC(N1)C(=O)OCC(C)(C)C2 (stereo not given) | – | – | – | – | – | – | – | viability, T/C (compound 0.003 µM): 95.7% [middle of 8 runs]; viability, T/C (compound 0.00949 µM): 98.4% [middle of 8 runs]; viability, T/C (compound 0.0949 µM): 105% [middle of 8 runs]; IC50 [2]: > 0.3 µM
9 | CCn1c(-c2cccnc2C(C)OC)c2c3cc(ccc31)N1CCOC(CC(NC(=O)C(C(C)C)N(C)C(=O)C3(F)CCN(C(=O)C#CC(C)(C)N(C)C)CC3)C(=O)N3CCCC(N3)C(=O)OCC(C)(C)C2)C1 (stereo not given) | – | – | – | – | – | – | – | viability, T/C (compound 0.000949 µM): 98.8% [middle of 8 runs]; viability, T/C (compound 0.00949 µM): 104% [middle of 8 runs]; viability, T/C (compound 0.03 µM): 102% [middle of 8 runs]; viability, T/C (compound 0.0949 µM): 102% [middle of 8 runs]; viability, T/C (compound 0.3 µM): 102% [middle of 8 runs]; IC50 [2]: > 0.3 µM
10 | C[C@@H](NC(=O)c1ncnc(N)c1Cl)c1ncc(C(=O)Nc2cc(C(F)(F)F)c(Cl)cn2)s1 | > 10 µM | 94.9% [middle of 4 runs] | 92.8% [middle of 4 runs] | 81.1% [middle of 4 runs] | 72.1% [middle of 4 runs] | 92.9% [middle of 4 runs] | 94.9% [middle of 4 runs] | –
11 | Nc1ccn(C2OC(CO)C(O)C2(F)F)c(=O)n1 (stereo not given) | > 1 µM and 0.221 µM and 0.274 µM | – | – | – | – | – | – | viability, T/C (compound 0.00316 µM): 94.8% [middle of 4 runs]; viability, T/C (compound 0.01 µM): 101% [middle of 4 runs]

Now from value to compound, other results behind:

Row | IC50 (curve of compound) | Structure (SMILES) | viability, T/C (compound 0.1 µM) | viability, T/C (compound 0.316 µM) | viability, T/C (compound 3.16 µM) | viability, T/C (compound 10 µM) | viability, T/C (compound 0.0316 µM) | viability, T/C (compound 1 µM) | also measured
12 | > 1 µM | C=CC(=O)N1CCN(c2nc(OCC3CCCN3C)nc3c(F)c(-c4nc(N)cc(C)c4C(F)(F)F)c(Cl)cc23)C(C)C1 (stereo not given) | – | 100% [middle of 12 runs] | – | – | 105% [middle of 12 runs] | – | IC50 [1]: > 1 µM
13 | > 10 µM | CC(C)NCC(C(=O)N1CCN(c2ncnc3c2C(C)CC3O)CC1)c1ccc(Cl)cc1 (stereo not given) | – | – | 90.4% [middle of 4 runs] | 80.6% [middle of 4 runs] | 95.3% [middle of 4 runs] | 94.8% [middle of 4 runs] | –
14 | > 10 µM | CC(Nc1ccc2c(c1)OCCn1cc(N3C(=O)OCC3C(F)F)nc1-2)C(N)=O (stereo not given) | – | 85.7% [middle of 4 runs] | 93.8% [middle of 4 runs] | 84.6% [middle of 4 runs] | 94% [middle of 4 runs] | 87.3% [middle of 4 runs] | –
15 | 6.64 µM [middle of 4 runs] | CC1(O)CCCC1n1c(=O)c(C(F)F)cc2cnc(NC3CCN(S(C)(=O)=O)CC3)nc21 (stereo not given) | 128% [middle of 4 runs] | – | – | 5.45% [middle of 4 runs] | – | 112% (2×) and 190% and 160% | –
16 | > 1 µM | CCN1CCN(Cc2ccc(Nc3ncc(F)c(-c4cc(F)c5nc(C)n(C(C)C)c5c4)n3)nc2)CC1 | – | 121% and 132% (2×) and 151% | – | – | – | 178% [middle of 4 runs] | viability, T/C (compound 0.00316 µM): 105% [middle of 4 runs]; viability, T/C (compound 0.01 µM): 107% [middle of 4 runs]
17 | > 10 µM | Cc1nc(N2CCC3(CC2)COC(C)C3N)c(CO)nc1Sc1ccnc(N)c1Cl (stereo not given) | – | 94.9% [middle of 4 runs] | – | – | 93.8% and 100% (2×) and 88.5% | 102% [middle of 4 runs] | –
18 | > 10 µM | NC1c2ccccc2OC12CCN(c1cnc3c(N4CCCc5ncccc54)n[nH]c3n1)CC2 (stereo not given) | 98.2% [middle of 4 runs] | 101% [middle of 4 runs] | 97.5% [middle of 4 runs] | 89.8% [middle of 4 runs] | 98.1% [middle of 4 runs] | 109% (2×) and 96.3% and 103% | –
19 | 79.8 nM [middle of 4 runs] | O=C(c1ccc(F)c(F)c1Nc1ccc(I)cc1F)N1CC(O)([C@@H]2CCCCN2)C1 | 53.5% [middle of 4 runs] | 28.1% [middle of 4 runs] | – | – | – | 20.8% [middle of 4 runs] | viability, T/C (compound 0.00316 µM): 75.2% [middle of 4 runs]
